# Measurements as given in PubChem BioAssay (NCI).
#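 Each compound was tested at five concentrations against cells in 96-well plates for 48 hours. GI50: concentration for 50% inhibition of growth. TGI denotes the concentration required for complete inhibition of growth.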
# Columns and labels:
# Assay in all cases: NCI tumour cell line growth inhibition, 48 h
# [1] = tested on: DLD-1 colon
# [2] = tested on: DMS 273 small cell lung
# [3] = tested on: HOP-18 NSCLC
# [4] = tested on: KM20L2 colon
# [5] = tested on: LXFL 529 NSCLC
# [6] = tested on: SNB-78 CNS
# [7] = tested on: XF 498 CNS
# [8] = tested on: RXF-631 renal
# [9] = tested on: MDA-N
# [10] = tested on: P388 leukemia
# [11] = tested on: P388/ADR leukemia
# [12] = tested on: SN12K1 renal
Compound,TGI [1] [µM],TGI [2] [µM],TGI [3] [µM],TGI [4] [µM],TGI [5] [µM],TGI [6] [µM],TGI [7] [µM],TGI [8] [µM],other results
CCCCCCCCCCCCCCCC(=O)NCC(COP(=O)([O-])OCC[N+](C)(C)C)OCC (stereo unspecified),16.9,5,4.53,13.7,27.8,29.6,25.5,,
CCOC(=O)CC1=Nc2ccccc2SC1,> 100,> 100,> 100,> 100,> 100,> 100,> 100,> 100,
CCCCCCCCCCCCC(=O)OC(c1cnco1)c1nc(C(O)CC(O)C(O)C(C)O)co1 (stereo unspecified),> 100,> 38.6,> 100,> 48.2,> 100,,> 100,,
CCc1c2c(nc3cc4c(cc13)OCO4)-c1cc3c(c(=O)n1C2)COC(=O)[C@]3(O)CC,,,,,,,,,TGI [9]: > 100 µM
O=C1NC2(CCCC2)C(=O)C12CCCC2,> 100,> 100,> 100,,> 100,> 100,> 100,> 100,
C1COCCN1.C1COCCN1.N.N.[Cl-].[Pt+2],> 100,> 100,> 100,> 100,> 100,> 100,,,GI50 [1]: > 100 µM; GI50 [2]: > 100 µM; GI50 [3]: > 100 µM; GI50 [4]: > 100 µM; GI50 [5]: > 100 µM; GI50 [6]: > 100 µM
O=c1cc(-c2cccc(F)c2)[nH]c2cc3c(cc12)OCO3,8.93,75,75,,75,75,75,,TGI [9]: 0.0407 µM
O=c1[nH]c2ccccc2cc1C(Cl)=C(Cl)Cl,> 100,> 100,> 100,> 100,> 100,> 100,> 100,,
FC(F)(F)c1nc(-c2ccccc2Cl)[nH]c1C(F)(F)F,> 29.5,3.03,2.6,3.44,3.73,> 29.5,1.54,,
COc1cc2c(c3c1C=CCO3)C(=O)c1ccccc1C2=O,71.1,> 100,> 100,> 100,> 100,> 100,,,
Cc1cc2c(cc1C)[n+](=O)c(C(=O)C/C(=N/NC(=O)c1ccccc1O)C(=O)Nc1ccccc1C(C)C)c(C)n2[O-],> 100,> 100,> 100,> 100,> 100,> 100,,> 100,
NC(CO)Cc1cnc[nH]1 (stereo unspecified),,,,,,,,,GI50 [9]: > 100 µM; TGI [9]: > 100 µM
COC(=O)C(c1[nH]nc2ccccc12)C(C(=O)OC)c1[nH]nc2ccccc12 (stereo unspecified),> 100,,> 100,> 100,> 100,> 100,> 100,> 100,
COC(=O)C(=O)CC(=O)CCn1ncc(Cl)c(Cl)c1=O,24.9,30.3,,33.4,24.2,50.8,44.6,23.6,
CC(=O)OCC1OC(O[C@@H]2C[C@H]3C(C)(C)[C@H](OC(C)=O)CC[C@]3(C)[C@H]3CCC4=C([C@@H](C)C[C@@H](O)[C@H](O)C(C)(C)O)CC[C@@]4(C)[C@@]32C)C(O)C(O)C1O (stereo partly specified),,,,,,,,,GI50 [9]: 16.8 µM; TGI [9]: 30.5 µM
C#CCNC(=O)NC(CCCNC(=O)OCc1ccccc1)C(=O)OCc1ccccc1 (stereo unspecified),> 100,> 100,,> 100,> 100,> 100,26.9,> 100,
N#CC1(c2nc3ccccc3o2)C(=O)C(=O)N(C2C3CC4CC(C3)CC2C4)C(=O)C1=O (stereo unspecified),,> 100,> 100,> 100,> 100,> 100,> 100,,
COc1ccc2cc1Oc1ccc(cc1)C[C@H]1c3cc(c(OC)cc3CCN1C)Oc1c(OC)c(OC)cc3c1[C@H](C2)N(C)CC3,20.5,13.2,20.3,10.7,,21.1,18.1,,TGI [10]: 9.38 µM; TGI [11]: 14.9 µM; TGI [12]: 14 µM

Compound,TGI [1] [µM],TGI [2] [µM],TGI [3] [µM],TGI [4] [µM],TGI [5] [µM],TGI [6] [µM],TGI [7] [µM],TGI [8] [µM],other results
CCOc1ccc(NC(=O)CC2Sc3ccccc3NC2=O)cc1 (stereo unspecified),> 100,> 100,54,> 100,> 100,> 100,,,
CSC1=NC=CCN1C,> 100,> 100,> 100,> 100,> 100,,,,
COC(=O)C(C#N)=C1c2ccccc2Oc2ccccc21,> 100,> 100,,> 100,94.8,> 100,> 100,,
COC1O[C@H]2CCN(C(=O)OCc3ccccc3)[C@H]2[C@H]1OCc1ccccc1 (stereo partly specified),> 100,> 100,> 100,> 100,> 100,> 100,> 100,,
CC(=O)[CH-]C(=O)c1ccccc1.CC(=O)[CH-]C(=O)c1ccccc1.CCCCCCCCCCCCCCCCCC(=O)[O-].CCCCCCCCCCCCCCCCCC(=O)[O-].[Ti+4],> 100,38.7,,> 100,34.6,,,,GI50 [1]: 31.7 µM; GI50 [2]: 20.1 µM; GI50 [4]: 33.9 µM; GI50 [5]: 18 µM
Clc1ccccc1C(c1ccccc1)(c1ccccc1)n1ccnc1,,,,,,,,,TGI [9]: 32.1 µM
Cn1cc(NC(=O)c2cc(NC(=O)CCCCCCCCCCC(=O)Nc3cc(C(=O)Nc4cc(C(=O)NCCC(=N)N)n(C)c4)n(C)c3)cn2C)cc1C(=O)NCCC(=N)N,> 100,> 100,> 100,> 100,> 100,> 100,> 100,,
O=C(C#Cc1c[nH]c(=O)[nH]c1=O)c1ccccc1Cl,29.3,38.8,34.4,,,60.7,,,
Cc1cc(=O)cc2sc3c(C)cccc3nc1-2,46.1,> 100,> 100,,32.9,> 100,,> 100,
CCOC(=O)C1(CC)CCCCC(=O)N1 (stereo unspecified),> 100,> 100,> 100,> 100,> 100,> 100,> 100,,
CSc1nc(SC)c2c(CN=[N+]=[N-])c(Br)n(Cc3ccccc3)c2n1,,,,,,,,,TGI [9]: > 100 µM
O=[N+]([O-])[C@@H]1C2C=CC(C2)[C@H]1Cl (stereo partly specified),> 100,> 100,> 100,,> 100,> 100,> 100,> 100,
O=C1NC(c2ccc(O)cc2)C2CCC1C2 (stereo unspecified),> 100,,,> 100,> 100,> 100,> 100,,
N/C(CC(=O)Nc1cc(C(F)(F)F)ccc1Cl)=N\O,,,,,,,,,TGI [9]: > 100 µM
O=C1CCCN(c2ccccc2)N1,,> 100,,> 100,> 100,,,> 100,
Cc1ccccc1C(C#N)C(=O)C(=O)Nc1nc([N+](=O)[O-])cs1 (stereo unspecified),> 100,,> 100,> 100,> 100,> 100,> 100,> 100,
C=CCSC[C@H](NC(=O)COc1ccccc1)C(=O)NC(C(=O)OCc1ccc([N+](=O)[O-])cc1)=C(C)C,> 100,> 100,> 100,> 100,> 100,> 100,,> 100,
